Experiment [1] has as its system Trachea. Description: Inhibition of carbachol-induced contraction of Sprague-Dawley rat tracheal rings after 30 mins by isometric tension technique. The format is functional, tissue-based. The conditions noted are these: 0.5 h.
Experiment [2] has as its system Trachea. Description: Inhibition of acetylcholine-induced contraction of Sprague-Dawley rat tracheal rings after 30 mins by isometric tension technique. The class given is functional, tissue-based.

One may read the EC50 as the concentration that produces a half-maximal response. Read a low EC50 as a more potent agent.

SMILES strings stand for the structures.

On to `CC(C)NC[C@H](O)c1ccc(O)c(O)c1` [LEVISOPRENALINE], for which, in experiment [1], the EC50 came out at 130 nM. In other words, the sub-micromolar range. On the same count and under the same terms, the value for `C[C@@H]1O[C@@H](O[C@H]2[C@H](O[C@H]3CC[C@@]4(C)[C@@H](CC[C@]5(C)[C@@H]4CC=C4[C@@H]6CC(C)(C)CC[C@]6(C(=O)O)CC[C@]45C)[C@]3(C)CO)OC[C@H](O)[C@@H]2O)[C@H](O)[C@H](O)[C@H]1O` [ALPHA-HEDERIN] was 1000 nM.

In the case of `CO[C@@H]1C[C@H](O[C@H]2[C@@H](O)C[C@H](O[C@@H]3[C@@H](C)O[C@@H](O[C@H]4CC[C@@]5(C)C(=CC[C@@H]6C(=O)O[C@@H]7CO[C@]8(C)OC=C(CC[C@@H]65)[C@H]78)C4)C[C@H]3OC)O[C@@H]2C)O[C@@H](C)[C@@H]1O`, the figures for the EC50 in experiment [1] and in experiment [2] (0.5 h) were 480 nM and 850 nM, respectively. In experiment [2], the inhibition result is “Dose-dependent effect”.

The record behind these values is ChEMBL document CHEMBL3232968, “Potent airway smooth muscle relaxant effect of cynatratoside B, a steroidal glycoside isolated from Cynanchum stauntonii” (J Nat Prod, 2014).
